From EP0061001A1, “Antiallergic agent comprising derivatives of adenosine” (Yamasa Shoyu Kabushiki Kaisha, priority 1981, dated 1982)
Read-outs that look alike come from different tables or passages of the source.

Columns and labels:
[1] = tested on: Passive cutaneous anaphylaxis (PCA); test: Passive cutaneous anaphylaxis (PCA) suppressing effect, method of J. Goose et al; type: in vivo, rats (Sprague Dawley-strain); conditions: iv, 40 min, rat PCA, compound given intravenously with antigen and Evans blue
Description: According to the method of J. Goose et al (see Immunology 16, 749, 1969), PCA reaction was carried out in the following manner.
To male rats (Sprague Dawley-strain; hereinafter abbreviated as SD-strain), weighing 120 to 150 g, 10 mg/kg of ovalubumin was administered intramuscularly and 2 x 10^10 cells of Bodetalla pertussis vaccine intraperitoneally. After 10 to 12 days, each rat was bled and antiserum was separated.
To other rats (SD-strain, weighing 120 to 150 g) shaved at the back, under ether anesthetization, 0.1 ml of the above antiserum diluted 4-fold was injected intradermally for dermal sensitization. After 48 hours, 1 mg/kg of ovalubumin (antigen), 1 mg/kg of Evans blue (dye) and various N^6-ω-aminoalkyl adenosine compounds and DSCG or isotonic saline were challenged intravenously. After 40 minutes, the diameter of dye spots on the skin and the leak quantity of dye were measured to determine ED50 (50% effective amount) for each compound.
The leak quantity of dye was determined by extracting the dye from the skin peeled off with potassium hydroxide, removing proteins with acetoneafter neutralization with phosphoric acid, and thereafter measuring absorbance at 620 nm of the resultant extract, which step was then followed by calculation therefrom. The N^6-ω-aminoalkyl adenosine compounds provided for the tests are enumerated below: […]

Acute toxicity tests = conditions: mouse, in vivo, ip; male mice, intraperitoneally, free form in isotonic saline solution or suspension; brackets = 95% confidence limit
Description: To ICR-JCL-strain mice (male, weighing 24 to 28 g), various N^6-w-aminoalkyl adenosine compound-s (each in free form) were administered as isotonic saline solutions or suspensions each in a dosage of 0.1 ml/10 g intraperitoneally for determination of LD50.

[2] = diameter of dye spots on the skin after 40 minutes, read-out: ED50 By diameter
[3] = leak quantity of dye after 40 minutes (absorbance at 620 nm), read-out: ED50 By dye quantity

| SMILES | ED50 [1, 2] [mg/kg] | ED50 [1, 3] [mg/kg] | LD50 (Acute toxicity tests) [mg/kg] |
| --- | --- | --- | --- |
| O=C(O)c1cc(=O)c2c(OCC(O)COc3cccc4oc(C(=O)O)cc(=O)c34)cccc2o1 [DSCG, disodium cromoglycate, reference compound] | 3.3 | 3 | – |
| NCCCNc1ncnc2c1ncn2[C@@H]1O[C@H](CO)[C@@H](O)[C@H]1O [compound 1, N^6-(3-amino-n-propyl)-Ado] | 0.87 | 0.2 | – |
| NCCCCCCNc1ncnc2c1ncn2[C@@H]1O[C@H](CO)[C@@H](O)[C@H]1O [compound 2, N^6-(6-amino-n-hexyl)-Ado] | 0.15 | 0.06 | – |
| NCCCCCCCNc1ncnc2c1ncn2[C@@H]1O[C@H](CO)[C@@H](O)[C@H]1O [compound 3, N^6-(7-amino-n-heptyl)-Ado] | 0.058 | 0.06 | 145 |
| NCCCCCCCCCNc1ncnc2c1ncn2[C@@H]1O[C@H](CO)[C@@H](O)[C@H]1O [compound 4, N^6-(9-amino-n-nonyl)-Ado] | 0.084 | 0.084 | 175 |
| NCCCNc1ncnc2c1ncn2[C@@H]1O[C@H](COP(=O)(O)O)[C@@H](O)[C@H]1O [compound 5, N^6-(3-amino-n-propyl)-5'-AMP] | 0.46 | 0.31 | – |
| NCCCCCCNc1ncnc2c1ncn2[C@@H]1O[C@H](COP(=O)(O)O)[C@@H](O)[C@H]1O [compound 6, N^6-(6-amino-n-hexyl)-5'-AMP] | 0.51 | 0.32 | – |
| NCCCCCCCCCNc1ncnc2c1ncn2[C@@H]1O[C@H](COP(=O)(O)O)[C@@H](O)[C@H]1O [compound 7, N^6-(9-amino-n-nonyl)-5'-AMP] | 0.29 | 0.16 | 195 |
| NCCCCNc1ncnc2c1ncn2[C@@H]1O[C@H](CO)[C@@H](OP(=O)(O)O)[C@H]1O [compound 8] | 1.7 | 0.64 | – |
| NCCCCCCNc1ncnc2c1ncn2[C@@H]1O[C@H](CO)[C@@H](OP(=O)(O)O)[C@H]1O [compound 9, N^6-(6-amino-n-hexyl)-3'-AMP] | 1.9 | 0.7 | – |
| NCCCCCCCCNc1ncnc2c1ncn2[C@@H]1O[C@H](CO)[C@@H](OP(=O)(O)O)[C@H]1O [compound 10, N^6-(8-amino-n-octyl)-3'-AMP] | 1.5 | 0.7 | 220 |
| NCCCCNc1ncnc2c1ncn2[C@@H]1O[C@@H]2COP(=O)(O)O[C@H]2[C@H]1O [compound 11, N^6-(4-amino-n-butyl)-cAMP] | 15 | 9.4 | – |
| NCCCCCCNc1ncnc2c1ncn2[C@@H]1O[C@@H]2COP(=O)(O)O[C@H]2[C@H]1O [compound 12, N^6-(6-amino-n-hexyl)-cAMP] | 3.3 | 3.2 | 165 |
| NCCCCCCCCNc1ncnc2c1ncn2[C@@H]1O[C@@H]2COP(=O)(O)O[C@H]2[C@H]1O [compound 13, N^6-(8-amino-n-octyl)-cAMP] | 3.7 | 3.1 | – |
| NCCCCCCCCCNc1ncnc2c1ncn2[C@@H]1O[C@@H]2COP(=O)(O)O[C@H]2[C@H]1O [compound 14, N^6-(9-amino-n-nonyl)-cAMP] | > 3.3 | 3.3 | – |
| NCCCCCCCCCCNc1ncnc2c1ncn2[C@@H]1O[C@@H]2COP(=O)(O)O[C@H]2[C@H]1O [compound 15, N^6-(10-amino-n-decanyl)-cAMP] | 8.2 | 6 | – |
